Literature values in PMC10882020 (Heliyon, 2024).

Key:
ACE = settings: read-out: ACE inhibitory activity IC50; ref 11 (Zheng et al.)
[1] = orally administered at a dose of 100–150 mg/kg; ref 11 (Zheng et al.)

## RGQVIYVL
ACE
  IC50: 38.2 µM
[1]
  antihypertensive effects: significant antihypertensive effects
